Data: ChEMBL document CHEMBL1141777, “Norlanostane triterpenoidal saponins from the marine sponge melophlussarassinorum” (2005)
Calls of active or inactive are those of the source. No cut-off for these calls is given here.

Legend:
[1] = test system: Saccharomyces cerevisiae; test: Antimicrobial activity against Saccharomyces cerevisiae; assay type: functional, organism-based
[2] = test system: Bacillus subtilis; test: Antimicrobial activity against Bacillus subtilis DSM 2109; assay type: functional, organism-based
[3] = test system: Escherichia coli; test: Antimicrobial activity against Escherichia coli DSM 10290; assay type: functional, organism-based
[4] = test system: Saccharomyces cerevisiae; test: Antimicrobial activity against Saccharomyces cerevisiae at 10 ug after 24 hrs by agar diffusion assay; assay type: functional; conditions: read-out: IZ
[5] = test system: Bacillus subtilis; test: Antimicrobial activity against Bacillus subtilis DSM 2109 at 10 ug after 24 hrs by agar diffusion assay; assay type: functional; conditions: DSM 2109, 24 h, read-out: IZ

Structure (SMILES)	Activity [1]	Activity [2]	Activity [3]	zone of inhibition at 10 µg/disc [4]	zone of inhibition at 10 µg/disc [5]
CC(=O)N[C@H]1[C@H](O[C@@H]2CO[C@@H](O[C@H]3CC[C@]4(C)C5=C(CC[C@H]4C3(C)C)[C@@H]3CC[C@H]([C@H](C)CC(=O)C=C(C)C)[C@@]3(C)CC5)[C@H](O[C@@H]3O[C@H](CO[C@@H]4O[C@H](CO)[C@@H](O)[C@H](O)[C@H]4O[C@@H]4O[C@H](CO)[C@@H](O)[C@H](O)[C@H]4O)[C@@H](O)[C@H](O)[C@H]3NC(C)=O)[C@H]2O)O[C@H](CO)[C@H](O)[C@@H]1O [SARASINOSIDE A1]	Active	inactive	inactive	10 mm	
CC(=O)N[C@H]1[C@H](O[C@@H]2CO[C@@H](O[C@H]3CC[C@]4(C)C5=C(CC[C@H]4C3(C)C)[C@@H]3CC[C@H]([C@H](C)CC(=O)CC(C)(C)O)[C@@]3(C)CC5)[C@H](O[C@@H]3O[C@H](CO[C@@H]4O[C@H](CO)[C@@H](O)[C@H](O)[C@H]4O[C@@H]4O[C@H](CO)[C@@H](O)[C@H](O)[C@H]4O)[C@@H](O)[C@H](O)[C@H]3NC(C)=O)[C@H]2O)O[C@H](CO)[C@H](O)[C@@H]1O [SARASINOSIDE J]	Active			13 mm	9 mm
